Here are results for 26 compounds from patent US20240327334A1, “Covalent Inhibitors As Antiviral Agents” (Enanta Pharmaceuticals, Inc., priority 2022, published 2024).

For the assay, the target named is SARS-CoV-2 Papain-like (PLpro) protease (Severe acute respiratory syndrome coronavirus 2, UniProt P0DTD1). Kind of assay: SARS-CoV-2 Papain-like (PLpro) protease biochemical enzyme inhibition assay (ubiquitin-fluorophore substrate, Ub-R110). The following applies: Ub-R110 substrate; run in duplicate; read-out: PLpro IC50.

The term IC50 denotes the concentration that inhibits the measured activity by half. Turning to `COC(=O)/C=C/CCNC(=O)C(=O)NCC1C[C@H]1C(=O)N[C@H](C)c1cccc2ccccc12` (some centres unmarked) [Example 17], the IC50 is greater than 10000 nM.
The figure for `C#CC(=O)NNC(=O)C(=O)Nc1ccccc1C(=O)N[C@H](C)c1cccc2ccccc12` [Example 26] is 1000 to 10000 nM; for `C#C[C@@H](NC(=O)C(=O)NCc1ccccc1C(=O)NC1(c2ccc3nn(C)cc3c2)CC1)C(C)C` [Example 91] it is greater than 10000 nM; for `C#CCNC(=O)C(=O)NCc1ccccc1C(=O)NC1(c2cc(Oc3cccc(OC)c3)cc(C(F)(F)F)c2)CC1` [Example 63] it is greater than 10000 nM.
In the case of `N#CN1CCC[C@H]1CC(=O)NCc1ccccc1C(=O)NC1(c2cc(Br)cc3ccccc23)CC1` [Example 316], the IC50 was 100 to 1000 nM.
The figure for `C#CCNC(=O)C(=O)NCc1ccccc1C(=O)NC1(c2cc(-c3c(C)nn(C)c3C)ccc2Cl)CC1` [Example 395] is 100 to 1000 nM; for `COC(=O)/C=C/CCNC(=O)C(=O)NCC1C[C@@H]1C(=O)N[C@H](C)c1cccc2ccccc12` (some centres unmarked) [Example 19] it is greater than 10000 nM; for `NC(=O)N1CCC[C@H]1CNC(=O)C(=O)NCc1ccccc1C(=O)NC1(c2cccc3ccccc23)CC1` [Example 505] it is 1000 to 10000 nM.
The figure for `O=C(NCC#Cc1ccc(F)cc1F)C(=O)NCc1ccccc1C(=O)NC1(c2ccc3ccccc3c2)CC1` [Example 80] is greater than 10000 nM.
Turning to `Cc1nn(C)cc1-c1cc(Cl)cc(C2(NC(=O)c3ccccc3CNC(=O)C(=O)NCC#N)CC2)c1` [Example 482], the half-inhibitory concentration (IC50) was less than 100 nM.
As for `COc1cc(C2(NC(=O)c3ccccc3CNC(=O)C(=O)NC[C@@H]3CCCN3)CC2)cc2cn(C3CC3)nc12` [Example 511], the half-maximal inhibitory concentration (IC50) lay in the range of 1000 to 10000 nM.
As to `O=C(NCC#Cc1ccc2c(c1)CNC2=O)C(=O)NCc1ccccc1C(=O)NC1(c2ccc3ccccc3c2)CC1` [Example 410], the 50% inhibitory concentration (IC50) lay within 100 to 1000 nM.
In the case of `COC(=O)/C=C/CNC(=O)C(=O)NCc1ccccc1C(=O)NC1(c2ccc3ccccc3c2)CC1` [Example 43] it was less than 100 nM.
Take `C[C@@H](C#Cc1ccc(C#N)cc1C#N)NC(=O)C(=O)NCc1ccccc1C(=O)NC1(c2ccc3nn(C)cc3c2)CC1` [Example 110]: the half-inhibitory concentration (IC50) was 1000 to 10000 nM.
In the case of `N#CCNC(=O)C(=O)NCc1ccccc1C(=O)NC1(c2ccc3nc(C4CC4)ccc3c2)CC1` [Example 400] it was less than 100 nM; in that of `NC(=O)N1CC[C@@H]1CNC(=O)C(=O)NCc1ccccc1C(=O)NC1(c2cccc3ccccc23)CC1` [Example 499], 1000 to 10000 nM; in that of `COC(=O)/C=C/CNC(=O)C(=O)NCC1C[C@H]1C(=O)N[C@H](C)c1cccc2ccccc12` (some centres unmarked) [Example 18], 1000 to 10000 nM.
As for `O=C(NCC#CC1CC1)C(=O)NCc1ccccc1C(=O)NC1(c2ccc3ccccc3c2)CC1` [Example 523], the IC50 is greater than 10000 nM.
In the case of `N#CCNC(=O)C(=O)NCc1ccccc1C(=O)NC1(c2cc(Cl)cc(-c3cnc(C(F)(F)F)nc3)c2)CC1` [Example 72] it was 100 to 1000 nM; in that of `CN(C(=O)c1cc(Cl)cc(C2(NC(=O)c3ccccc3CNC(=O)C(=O)NCC#N)CC2)c1)c1ccc(F)cc1` [Example 78], 100 to 1000 nM.
The figure for `N#CCNC(=O)C(=O)N1Cc2cccc(C(=O)NC3(c4cc(Br)cc5ccccc45)CC3)c2C1` [Example 315] is 1000 to 10000 nM; for `Cc1cnn(C)c1-c1cc(C(F)(F)F)cc(C2(NC(=O)c3ccccc3CNC(=O)C(=O)NCC#N)CC2)c1` [Example 474] it is 100 to 1000 nM.
Consider `C[C@@H](C#Cc1ncco1)NC(=O)C(=O)NCc1ccccc1C(=O)NC1(c2cc(F)cc(-c3cnn(C4CC4)c3)c2)CC1` [Example 143], for which the half-inhibitory concentration (IC50) lay within 1000 to 10000 nM.
In the case of `N#Cc1ncc(C#CCNC(=O)C(=O)NCc2ccccc2C(=O)NC2(c3ccc4ccccc4c3)CC2)cn1` [Example 182] it was greater than 10000 nM; in that of `N#CN1CCC[C@@H]1CNC(=O)C(=O)NCc1ccccc1C(=O)NC1(c2cccc3ccccc23)CC1` [Example 508], 100 to 1000 nM.
In the case of `N#CCNC(=O)C(=O)NCc1ccccc1C(=O)NC1(c2cccc(C(F)(F)F)c2F)CC1` [Example 376] it was 100 to 1000 nM.
